# In patent US11524950B2, “Treatment of immune-related and inflammatory diseases” (Celgene Corporation, priority 2012, dated 2022):
# Read-outs that look alike come from different tables or passages of the source.
# Columns and labels:
# [1] = test system: BCL-6, IRF-4, BLIMP-1, PAX5 and XBP-1; assay: Transcription factor protein expression by laser scanning cytometry (iCyte), normal B cells; format: cell-based, human; conditions: Day 7, 20 nM
# Procedure: Preparation Of Cytospin From Single Cell Suspension And Immunofluorescence Staining for iCyte: A cell suspension of not more than 0.5×10^6 cells/ml of 2% FBS-containing PBS was prepared. Up to 200 μl of this suspension was loaded in each cuvette and spinned at 800 rpm for 3 min. The cuvette and the paper were carefully detached without damaging the fresh cytospin and proceeded with either immediate fixation or drying. Unfixed cytospins were stored for max 2 days at room temperature. Cells on slides were fixed with increasing concentrations of EtOH and allowed to dry prior to staining. After blocking non-specific binding with normal serum (species same as secondary antibody), sections were incubated with the mixture of following monoclonal antibodies in a humidified chamber at cool room for overnight: (i) anti-human CD38 as plasmablast cell marker, and (ii) anti-BCL-6, IRF-4, BLIMP-1, PAX5 and XBP-1 for transcription factor proteins. After washings, slides were incubated for 1 hr at room temperature in dark with the mixture of secondary antibodies which were raised in different species (with two different fluorochromes, i.e., Alexa Fluor-488 and Alexa Fluor-633). The slides were then rinsed in PBS, counterstained with DAPI for 20 minutes at room temperature, coverslipped with anti-fade fluorescent mounting medium, and sealed with nail polish. The slides were stored in dark at 4° C. To exclude false positives produced by nonspecific binding of the secondary antibody, all of the tissues were treated in the same manner with buffer substituting for the primary antibody. The color of the antibody staining was observed and quantity was analyzed in the tissue sections using iCyte.
# SSc fibroblasts = assay: Fibrotic gene expression in SSc skin fibroblasts (real time PCR); format: cell-based, human; conditions: 24 hours
# Procedure: Cell cultures: Human normal and scleroderma skin fibroblasts were cultured in DMEM containing 10% fetal bovine serum (FBS). The cells were maintained in a humidified 5% CO2, 95% air incubator at 37° C. After confluence was reached, the cells were harvested with 0.05% trypsin and subcultured. Cells were used in the 3rd-5th passage.
# Experimental design: Cells were grown to 70-80% confluence and placed into quiescent state by a reduction in serum concentration to 0.4% for overnight. The effects of the compound on TGFβ fibrotic effects and on NL and SSc fibrotic gene expression were tested.
# Effects of the compound on SSc-FB: SSc fibrobasts were treated with the compound at different concentration and gene expression levels of Collagen 1A1 (COL1), α-smooth muscle actin (α-SMA), fibronectin (FN), matrix metallopeptidase 1 (MMP1), plasminogen activator inhibitor (PAI), and DNA (cytosine-5-)-methyltransferase 1 (Dnmt1) were determined 24 hours later by real time PCR.
# Quantitative Real-Time PCR: Total RNA was extracted from cells using RNeasy kit. RNA concentration was measured and 1 ug of RNA was reverse transcribed to cDNA using RT-First strand kit. The cDNA was then amplified using respective primers and Power SYBR Green PCR Master Mix. The amplicon (150-200 bp) was detected by ABI 7500 Real Time PCR System. All the target genes were normalized to GAPDH and relative fold changes were calculated. Each sample was assessed in triplicate.
# H929 MM cell lines = assay: Cell proliferation in lenalidomide-sensitive and resistant H929 MM cells (7-AAD); format: cell-based; conditions: Homo sapiens, NCI-H929, 120 h, 5 days, read-out: IC50 for inhibition of proliferation
# Procedure: CRBN ubiquitination was measured in HEK293T cells, which were transfected with an amino-terminal His-biotin-tagged CRBN construct, then preincubated with compounds for one hour followed by treatment with the MG132 proteasome inhibitor (to arrest degradation of ubiquitinated proteins). Cells were lysed and processed to measure CRBN ubiquitination by SDS-PAGE and immunoblot analysis using an anti-ubiquitin antibody. Cell proliferation studies were conducted in enalidomide-sensitive and refractory multiple myeloma cells. Lenalidomide-resistant or sensitive H929 MM cell lines were treated with Compound IA for 5 days, and then cell proliferation and viability were assessed by 7-aminoactinomycin D (“7-ADD”) staining. T-cell costimulation was measured in purified primary human T cells stimulated using immobilized anti-CD3 antibody in cell culture for 2 days, and cytokine secretion was measured by ELISA.
# [2] = CD38+ plasmablast/plasma cells, listed as Compound I-S
structure (smiles),measurement,setting,value
"O=C1CC[C@H](N2Cc3c(OCc4ccc(CN5CCOCC5)cc4)cccc3C2=O)C(=O)N1 [Test compound, (S)-3-[4-(4-morphlin-4-ylmethylbenzyloxy)-1-oxo-1,3-dihydro-isoindo-2-yl]piperidine-2,6-dione]",BCL-6 expression,[1]; CD38+ plasmablast/plasma cells,significantly increased
same,BLIMP-1 expression,[1]; CD38+ plasmablast/plasma cells,decreased
same,IRF-4 expression,[1]; CD38+ plasmablast/plasma cells,decreased
same,PAX-5 expression,[1]; CD38+ plasmablast/plasma cells,decreased
same,BCL-6 expression,[1]; [2],increased
same,BLIMP-1 expression,[1]; [2],reduced
same,IRF-4 expression,[1]; [2],reduced
same,XBP-1 expression,[1]; both cell populations,no change
same,BCL-6 expression,[1]; whole lymphocyte population,significantly increased
same,BLIMP-1 expression,[1]; whole lymphocyte population,decreased
same,IRF-4 expression,[1]; whole lymphocyte population,decreased
same,expression of COL1 mRNA,SSc fibroblasts,dose dependently reduced
same,expression of Dnmt1,SSc fibroblasts,dose dependently reduced
same,expression of FN mRNA,SSc fibroblasts,dose dependently reduced
same,expression of MMP-1,SSc fibroblasts,dose dependently increased
same,expression of PAI,SSc fibroblasts,dose dependently reduced
same,expression of aSMA mRNA,SSc fibroblasts,dose dependently reduced
same,IC50,H929 MM cell lines; DMSO-treated subclone,40 nM
same,IC50,H929 MM cell lines; lenalidomide resistant subclones,510 to 1580 nM
same,IC50,H929 MM cell lines; parental H929 cell line,10 nM
